Assay results from US20250101378A1, “CULTURE MEDIUM AND CULTURE METHOD FOR MAMMARY EPITHELIAL CELLS, AND USE OF MAMMARY EPITHELIAL CELLS” (PRECEDO PHARMACEUTICALS CO., LTD, priority 2022, published 2025).

Tests used:
Assay type in all cases: cell-based, human
[1] = test system: primary breast cancer cells isolated from breast tumor tissue; assay: Screening of additive factors in the culture medium of primary mammary epithelial cells (cell count after 14 days); design: key to Level of promoting proliferation: +: compared with the Basal Medium, the culture medium added with the additive(s) has the effect of promoting the proliferation of at least three cases of primary breast cancer cells isolated from breast tumor tissue; ++: the number of “+” indicates the degree of proliferation promotion; ++++: the number of “+” indicates the degree of proliferation promotion; −: the culture medium added with the additive(s) has the effect of inhibiting the proliferation of at least two cases of primary breast cancer cells isolated from breast tumor tissue; the culture medium added with the additive(s) has no significant effect on the proliferation of at least three cases of primary breast cancer cells isolated from breast tumor tissue; conditions: 14 days of culture; for Level of promoting proliferation: additive added to Basal Medium at the concentration of Table 1, cell count compared with Basal Medium, five breast tumor samples; for promotion of growth of primary breast tumor cells (in words): additive added to Basal Medium, compared with Basal Medium
Method: First, a basal culture medium based on WO 2021/088119 was prepared. To a commercially available DMEM/F-12 culture medium, GlutaMAX-I (manufactured by Thermo Fisher Scientific) was added at the concentration specified in the instruction manual (1:100 dilution), human insulin (Sigma) was added at a final concentration of 10 μg/ml, ROCK inhibitor Y27632 (Sigma) was added at a final concentration of 10 μM, penicillin-streptomycin (Thermo Fisher Scientific) was added at a 1:100 dilution, human amphiregulin (manufactured by R&D systems) was added at a final concentration of 20 ng/ml, epidermal growth factor (EGF, manufactured by Peprotech) was added at a final concentration of 10 ng/ml, B27 (Thermo Fisher Scientific) was added at a 1:50 dilution, human neuregulin 1 (Peprotech) was added at a final concentration of 10 nM, fibroblast growth factor 7 (FGF7, R&D systems) was added at a final concentration of 10 ng/ml), and TGFβ1 inhibitor A8301 (manufactured by MCE) was added at a final concentration of 500 nM, to prepare a basal culture medium for primary mammary epithelial cells, hereinafter referred to as “Basal Medium”.
Then, different types of additives (Table 1) were added to the Basal Medium to prepare culture mediums for mammary epithelial cells containing different additives. The culture medium with different components was added to a 24-well plate coated with extracellular matrix gel at a volume of 500 μl/well, and 3 replicates were prepared for each culture medium formulation. The breast cancer cells (1 #) isolated from the breast tumor tissue in Example (1) were inoculated at a cell density of 3×10^4 cells/well in a 24-well culture plate coated with extracellular matrix gel, and cultured at 37° C. and 5% CO2 concentration using different culture medium formulations, respectively. The culture medium was replaced every 3 days after the start of culture. After 14 days of culture, the cells were counted. Basal Medium without addition of any additive shown in Table 1 was used as an experimental control.
The tumor cells isolated from the rest four cases of breast tumor tissue samples were also cultured and counted in the same manner as above.

[2] = test system: primary breast cancer cells (2 #); assay: Optimization of the concentration of additives in the culture medium (cell count on day 14, FIGS. 1A-1G); conditions: graded concentrations added to Formulations 1-7, 96-well plate, day 14 cell count
Method: The following 7 different formulations of culture mediums were further prepared: • Formulation 1: the Basal Medium was added with 1:100-fold diluted MEM-NEAA, 1 mM sodium pyruvate, 50 ng/ml IGF1, 20 ng/ml bFGF, 10 ng/ml TNF-α and 20 ng/ml FGF10; • Formulation 2: the Basal Medium was added with 10 nM β-estradiol, 1 mM sodium pyruvate, 50 ng/ml IGF1, 20 ng/ml bFGF, 10 ng/ml TNF-α and 20 ng/ml of FGF10; • Formulation 3: the Basal Medium was added with 10 nM β-estradiol, 1:100-fold diluted MEM-NEAA, 50 ng/ml IGF1, 20 ng/ml bFGF, and 10 ng/ml TNF-α and 20 ng/ml FGF10; • Formulation 4: the Basal Medium was added with 10 nM β-estradiol, 1:100-fold diluted MEM-NEAA, 1 mM sodium pyruvate, 20 ng/ml bFGF, and 10 ng/ml TNF-α and 20 ng/ml FGF10; • Formulation 5: the Basal Medium was added with 10 nM β-estradiol, 1:100-fold diluted MEM-NEAA, 1 mM sodium pyruvate, 50 ng/ml IGF1, and 10 ng/ml TNF-α and FGF10 at 20 ng/ml; • Formulation 6: the Basal Medium was added with 10 nM β-estradiol, 1:100-fold diluted MEM-NEAA, 1 mM sodium pyruvate, 50 ng/ml IGF1, 20 ng/ml bFGF and 20 ng/ml FGF10; • Formulation 7: the Basal Medium was added with 10 nM β-estradiol, 1:100-fold diluted MEM-NEAA, 1 mM sodium pyruvate, 50 ng/ml IGF1, 20 ng/ml bFGF and 10 ng/ml of TNF-α.
Subsequently, β-estradiol (Sigma) was added to Formulation 1 to prepare culture mediums for human mammary epithelial cells containing β-estradiol at final concentrations of 5 nM, 10 nM, 50 nM, and 100 nM, and each culture medium was added to a 96-well plate coated with Matrigel at a volume of 100 μl/well, with 3 replicates for each concentration. The primary breast cancer cells (2 #) isolated from breast tumor tissue in Example (1) were seeded in a Matrigel-coated 96-well culture plate at a density of 500 cells/well and cultured in Formulation 1 containing different concentrations of β-estradiol at 37° C. and 5% CO2. The culture medium was replaced every 3 days after the start of culture. On the 14th day of culture, the cells were counted. Formulation 1 was used as an experimental control, i.e., the content of β-estradiol was 0 nM.
Non-essential amino acids (MEM-NEAA) additive (Thermo Fisher) was added to Formulation 2 at a dilution ratio of 1:200, 1:100, 1:50, and 1:20 to prepare culture mediums for human mammary epithelial cells containing different concentrations of non-essential amino acids. The culture mediums of different formulations were added to a 96-well plate coated with Matrigel at a volume of 100 μl/well, with 3 replicates for each concentration. Primary cells were cultured and counted in the same manner as above. As an experimental control, Formulation 2 was used, i.e., the content of non-essential amino acids was 0.
Similarly, sodium pyruvate (Thermo Fisher) was added to Formulation 3 to prepare culture mediums for human mammary epithelial cells containing sodium pyruvate at final concentrations of 0.5 mM, 1 mM, 2 mM, and 4 mM. […] Primary cells were cultured and counted in the same manner as above. […]
Then, insulin-like growth factor 1 (IGF1, manufactured by R&D) was added to formulation 4 to prepare culture mediums for human mammary epithelial cells containing IGF1 at final concentrations of 10 ng/ml, 20 ng/ml, 50 ng/ml, 100 ng/ml, and 200 ng/ml, and the culture mediums containing different concentrations of IGF1 were added to a 96-well plate coated with Matrigel at a volume of 100 μl/well, with 3 replicates for each concentration. Primary cells were cultured and counted in the same manner as above. […]

breast tumor cells (5 #) = assay: In vitro drug sensitivity test, Cell Titer-Glo cell viability; conditions: 72 hours after drug administration, 1:3 dilution series from 2 times Cmax
Method: I. Plating of primary breast cancer cells: using the culture medium of the invention in section (5) of Example 1, breast tumor cells (5 #) were cultured by the method described in section (1) of Example 2, and the cells were inoculated in a 384-well plate at a density of 3000 to 5000 cells/well, and the cells were subjected to adherent culture overnight.
(1) The drug storage plate was prepared by the concentration gradient dilution method: 10 μL of the drug stock solutions to be tested (the concentration of the drug stock solution was prepared at 2 times the maximum plasma concentration Cmax of the drug in the human body) were respectively taken and added to a 0.5 mL EP tube containing 20 μL of DMSO, and then 10 μL was aspirated from the above EP tube into a second 0.5 mL EP tube containing 20 μL of DMSO, that is, the drug was diluted 1:3. The above process was repeated for gradually dilution until 8 or 9 concentrations required for dosing were obtained. Different concentrations of drugs were added to the 384-well drug storage plate. Equal volume of DMSO was added to each well of the solvent control group as a control. In this example, the drugs to be tested are clinically approved anti-tumor drugs, docetaxel (MCE), palbociclib (MCE), dovitinib (MCE), capecitabine (MCE), crizotinib (MCE) and etoposide (MCE).
(2) Using a high-throughput automated workstation (purchased from Perkin Elmer), different concentrations of drugs and solvent controls in the 384-well drug storage plates were added to the 384-well cell culture plates plated with the breast tumor cells. Both the drug groups and the solvent control groups were set up with 3 replicate wells. The volume of drug added to each well was 100 nL.
(3) Cell activity detection: 72 hours after drug administration, Cell Titer-Glo assay kit (manufactured by Promega) was used to detect the chemiluminescence value of the cultured cells after drug administration. The magnitude of the chemiluminescence value reflects the cell viability and the effect of the drug on the cell viability. The prepared Cell Titer-Glo detection solution was added to each well, and a microplate reader was used to detect the chemiluminescence value after mixing.
Graphpad Prism 7.0 software was used to draw graphs and calculate the median inhibition concentration IC50.

## insulin-like growth factor 1
[1]
  Level of promoting proliferation: +
  promotion of growth of primary breast tumor cells (in words): promote the growth
[2]
  effect on in vitro proliferation of primary breast cancer cells (in words): obvious proliferative effects

## COc1cc([C@@H]2c3cc4c(cc3[C@@H](O[C@@H]3O[C@@H]5CO[C@@H](C)O[C@H]5[C@H](O)[C@H]3O)[C@H]3COC(=O)[C@H]23)OCO4)cc(OC)c1O [etoposide]
Breast tumor cells (5 #)
  sensitivity of breast cancer cells to drug (in words): more sensitive

## CC(=O)C(=O)[O-].[Na+] [sodium pyruvate]
[1]
  Level of promoting proliferation: ∘

## C[C@@H](Oc1cc(-c2cnn(C3CCNCC3)c2)cnc1N)c1c(Cl)ccc(F)c1Cl [crizotinib]
Breast tumor cells (5 #)
  sensitivity of breast cancer cells to drug (in words): less sensitive

## C[C@]12CC[C@@H]3c4ccc(O)cc4CC[C@H]3[C@@H]1CC[C@@H]2O [β-estradiol]
[1]
  Level of promoting proliferation: ∘
[2]
  effect on in vitro proliferation of primary breast cancer cells (in words): obvious proliferative effects

## basic fibroblast growth factor
[1]
  Level of promoting proliferation: ++
  promotion of growth of primary breast tumor cells (in words): stronger
[2]
  effect on in vitro proliferation of primary breast cancer cells (in words): obvious proliferative effects

## CC(=O)O[C@@]12CO[C@@H]1C[C@H](O)[C@@]1(C)C(=O)[C@H](O)C3=C(C)[C@@H](OC(=O)[C@H](O)[C@@H](NC(=O)OC(C)(C)C)c4ccccc4)C[C@@](O)([C@@H](OC(=O)c4ccccc4)[C@H]21)C3(C)C [docetaxel]
Breast tumor cells (5 #)
  sensitivity of breast cancer cells to drug (in words): more sensitive

## CCCCCOC(=O)Nc1nc(=O)n([C@@H]2O[C@H](C)[C@@H](O)[C@H]2O)cc1F [capecitabine]
Breast tumor cells (5 #)
  sensitivity of breast cancer cells to drug (in words): less sensitive

## tumor necrosis factor α
[1]
  Level of promoting proliferation: ++
  promotion of growth of primary breast tumor cells (in words): stronger
[2]
  effect on in vitro proliferation of primary breast cancer cells (in words): obvious proliferative effects

B1: fibroblast growth factor 10 (protein, UniProt O15520 38-208, looked up)
Fibroblast growth factor 10: QALGQDMVSPEATNSSSSSFSSPSSAGRHVRSYNHLQGDVRWRKLFSFTKYFLKIEKNGKVSGTKKENCPYSILEITSVEIGVVAVKAINSNYYLAMNKKGKLYGSKEFNNDCKLKERIEENGYNTYASFNWQHNGRQMYVALNGKGAPRRGQKTRRKNTSAHFLPMVVHS
notes: growth factor used as culture medium additive
[1]
  Level of promoting proliferation: +
  promotion of growth of primary breast tumor cells (in words): promote the growth
[2]
  effect on in vitro proliferation of primary breast cancer cells (in words): dose-dependent pro-proliferation effect
